What all share (format): functional
Assay [1] is filed under the species Mus musculus. Description: Tested for antagonism of bicuculline-induced tonic-extensor convulsions (B) in mice.
The species entered for assay [2] is Mus musculus. Description: Tested for antagonism of pentylenetetrazole-induced clonic convulsions (P) in mice.
For assay [3], the species on record is Mus musculus. Description: Tested for potentiation of gamma-butyrolactone induced sleep (gamma-B) in mice.
The species named for assay [4] is Mus musculus. Description: Tested for potentiation of yohimbine toxicity in aggregated mice(Y).
Assay [5] is filed under the species Mus musculus. The assay can be described thus: Prolongation of hypoxic survival time (HS) in mice.
Assay [6] is filed under the species Mus musculus. Description: Tested for stereotyped gnawing and licking behavior of mice pretreated with apomorphine (AG).
The species named for assay [7] is Mus musculus. The assay can be described thus: Tested for antagonism of oxotremorine hypothermia (OX) in mice.
The species named for assay [8] is Mus musculus. Description: Tested for antagonism of nicotine-induced death (D) in mice.
The species entered for assay [9] is Mus musculus. The assay can be described thus: Tested for antagonism of nicotine-induced tonic extensor convulsions (TE) in mice.

The ED50 is the dose at which the effect has come halfway, by size or by number of responders. For `NCCc1nnc2n1-c1ccccc1C(c1ccccc1Cl)=NC2`, the median effective dose (ED50) in the assay listed under Mus musculus [1] was greater than 50 mg/kg; in the assay listed under Mus musculus [2] it was greater than 50 mg/kg; in the assay filed under Mus musculus [3], 20 mg/kg; in the assay filed under Mus musculus [4], greater than 50 mg/kg; in the assay listed under Mus musculus [5] it was 20 mg/kg; in the assay listed under Mus musculus [6] it was greater than 50 mg/kg. Moreover, the ED50 in the assay listed under Mus musculus [7] was greater than 50 mg/kg.

On to `C#CCN(C)Cc1nnc2n1-c1ccccc1C(c1ccccc1Cl)=NC2`, for which the ED50 in the assay listed under Mus musculus [1] was 2 mg/kg; in the assay filed under Mus musculus [2], 2 mg/kg; in the assay listed under Mus musculus [3], 8 mg/kg; in the assay filed under Mus musculus [4], greater than 50 mg/kg; in the assay filed under Mus musculus [5], 3 mg/kg; in the assay filed under Mus musculus [6] it was greater than 50 mg/kg. Besides, the median effective dose (ED50) in the assay filed under Mus musculus [7] is greater than 50 mg/kg.

For `CC(N)Cc1nnc2n1-c1ccccc1C(c1ccccc1Cl)=NC2` (stereo not drawn), the ED50 in the assay listed under Mus musculus [1] was greater than 50 mg/kg; in the assay filed under Mus musculus [2], greater than 50 mg/kg; in the assay listed under Mus musculus [3], greater than 50 mg/kg; in the assay listed under Mus musculus [4], 20 mg/kg; in the assay filed under Mus musculus [5], 10 mg/kg; in the assay listed under Mus musculus [6] it was greater than 50 mg/kg. In the assay filed under Mus musculus [7], this molecule returned an ED50 greater than 50 mg/kg.

Take `CN(C)CCc1nnc2cc(-c3ccccc3)c3cc(Cl)ccc3n12`: the ED50 in the assay filed under Mus musculus [1] was greater than 50 mg/kg; in the assay listed under Mus musculus [2] it was greater than 50 mg/kg; in the assay listed under Mus musculus [3], greater than 50 mg/kg; in the assay listed under Mus musculus [4], 40 mg/kg; in the assay listed under Mus musculus [6] it was greater than 50 mg/kg; in the assay listed under Mus musculus [7], greater than 50 mg/kg.

For `CN(C)CCc1nnc2n1-c1ccc(Br)cc1C(c1ccccc1)=NC2`, the 50% effective dose (ED50) in the assay listed under Mus musculus [1] was 7 mg/kg; in the assay filed under Mus musculus [2], 5 mg/kg; in the assay filed under Mus musculus [3], 5 mg/kg; in the assay listed under Mus musculus [4], 3 mg/kg; in the assay listed under Mus musculus [5], 5 mg/kg; in the assay filed under Mus musculus [6], greater than 50 mg/kg. For the same molecule, the 50% effective dose (ED50) in the assay listed under Mus musculus [7] came out at 0.9 mg/kg.

For `CN(C)Cc1nnc2n1-c1ccc(Br)cc1C(c1ccccc1)=NC2`, the ED50 is 0.8 mg/kg in the assay listed under Mus musculus [1]; 0.7 mg/kg in the assay listed under Mus musculus [2]; 0.1 mg/kg in the assay filed under Mus musculus [3]; 35.4 mg/kg in the assay listed under Mus musculus [4]; 0.8 mg/kg in the assay filed under Mus musculus [5]; greater than 50 mg/kg in the assay listed under Mus musculus [6]. The same molecule returned an ED50 in the assay listed under Mus musculus [7] of 7.4 mg/kg.

`CCN(CC)Cc1nnc2n1-c1ccc(Cl)cc1C(c1ccccc1)=NC2`: the ED50 in the assay listed under Mus musculus [1] is 2.6 mg/kg; in the assay filed under Mus musculus [8], 0.08 mg/kg; in the assay listed under Mus musculus [9] it was 0.08 mg/kg; in the assay listed under Mus musculus [2], 3.1 mg/kg; in the assay filed under Mus musculus [3] it was 0.6 mg/kg; in the assay filed under Mus musculus [5], greater than 50 mg/kg.

In the case of `CN(C)Cc1nnc2n1-c1ccc(Cl)cc1/C(c1ccccc1)=N\CC2`, the median effective dose (ED50) is greater than 50 mg/kg in the assay listed under Mus musculus [1]; greater than 100 mg/kg in the assay listed under Mus musculus [9]; greater than 50 mg/kg in the assay filed under Mus musculus [2]; 15 mg/kg in the assay filed under Mus musculus [3]; greater than 50 mg/kg in the assay filed under Mus musculus [4]; greater than 50 mg/kg in the assay filed under Mus musculus [6]. This molecule also came in with an ED50 in the assay filed under Mus musculus [7] greater than 50 mg/kg.

Regarding `CN(C)CCc1nnc2n1-c1ccccc1C(c1ccccc1Cl)=NC2`, the 50% effective dose (ED50) was greater than 50 mg/kg in the assay filed under Mus musculus [1]; 5 mg/kg in the assay listed under Mus musculus [2]; greater than 50 mg/kg in the assay listed under Mus musculus [3]; 30 mg/kg in the assay listed under Mus musculus [4]; 7 mg/kg in the assay filed under Mus musculus [5]; greater than 50 mg/kg in the assay listed under Mus musculus [6]. The same molecule yielded an ED50 in the assay listed under Mus musculus [7] greater than 50 mg/kg.

With `CC(N)c1nnc2n1-c1ccccc1C(c1ccccc1Cl)=NC2` (stereo not drawn), the median effective dose (ED50) was 0.4 mg/kg in the assay listed under Mus musculus [1]; 0.2 mg/kg in the assay listed under Mus musculus [2]; 3 mg/kg in the assay filed under Mus musculus [3]; greater than 50 mg/kg in the assay listed under Mus musculus [4]; 0.2 mg/kg in the assay listed under Mus musculus [5]; greater than 50 mg/kg in the assay filed under Mus musculus [6]. The same molecule yielded an ED50 in the assay filed under Mus musculus [7] greater than 50 mg/kg.

Regarding `NCCc1nnc2n1-c1ccc(Br)cc1C(c1ccccc1)=NC2`, the 50% effective dose (ED50) in the assay filed under Mus musculus [1] is 20 mg/kg; in the assay listed under Mus musculus [2], greater than 50 mg/kg; in the assay listed under Mus musculus [3], 30 mg/kg; in the assay filed under Mus musculus [4], 20 mg/kg; in the assay listed under Mus musculus [5] it was greater than 50 mg/kg; in the assay listed under Mus musculus [6], greater than 50 mg/kg. Also, in the assay filed under Mus musculus [7], the 50% effective dose (ED50) was determined as 7 mg/kg.

`CSc1ccc2c(c1)C(c1ccccc1)=NCc1nnc(CN(C)C)n1-2`: the 50% effective dose (ED50) in the assay listed under Mus musculus [1] is 10 mg/kg; in the assay listed under Mus musculus [2], 9 mg/kg; in the assay filed under Mus musculus [3], 10 mg/kg; in the assay listed under Mus musculus [4] it was 40 mg/kg; in the assay filed under Mus musculus [5] it was greater than 50 mg/kg; in the assay filed under Mus musculus [6] it was greater than 50 mg/kg. For the same molecule, the 50% effect level in the assay listed under Mus musculus [7] (ED50) was put at a dose of 10 mg/kg.

On to `CN(C)CCCc1nnc2n1-c1ccc(Cl)cc1C(c1ccccc1Cl)=NC2`, for which the median effective dose (ED50) is 2.6 mg/kg in the assay filed under Mus musculus [1]; 2.2 mg/kg in the assay filed under Mus musculus [2]; 0.2 mg/kg in the assay listed under Mus musculus [3]; 25 mg/kg in the assay filed under Mus musculus [4]; 2.2 mg/kg in the assay listed under Mus musculus [5]; greater than 50 mg/kg in the assay filed under Mus musculus [6]. The molecule further registered an ED50 in the assay filed under Mus musculus [7] of 25 mg/kg.

Take `CC(N)Cc1nnc2n1-c1ccc(Cl)cc1C(c1ccccc1Cl)=NC2` (stereo not drawn): the ED50 in the assay filed under Mus musculus [1] was 7.4 mg/kg; in the assay filed under Mus musculus [2], 10.5 mg/kg; in the assay filed under Mus musculus [3] it was 3.7 mg/kg; in the assay filed under Mus musculus [4], greater than 50 mg/kg; in the assay listed under Mus musculus [5] it was 25 mg/kg; in the assay filed under Mus musculus [6] it was greater than 50 mg/kg. In the assay filed under Mus musculus [7], this molecule showed an ED50 of 17.7 mg/kg.

In the case of `NCCc1nnc2n1-c1ccc(Br)cc1C(c1ccccn1)=NC2`, the median effective dose (ED50) in the assay filed under Mus musculus [1] was greater than 50 mg/kg; in the assay filed under Mus musculus [2], greater than 50 mg/kg; in the assay filed under Mus musculus [3], 30 mg/kg; in the assay listed under Mus musculus [4] it was 30 mg/kg; in the assay filed under Mus musculus [5], greater than 50 mg/kg; in the assay filed under Mus musculus [6], greater than 50 mg/kg. In the assay filed under Mus musculus [7], this molecule showed a median effective dose (ED50) of 30 mg/kg.
